From paper PMC4811503, “A method for quantification of exportin-1 (XPO1) occupancy by Selective Inhibitor of Nuclear Export (SINE) compounds” (Oncotarget, 2015)
Read-outs that look alike come from different tables or passages of the source.

How the values were obtained:
[1] = system: AML2; assay: MTT cytotoxicity assay; assay type: cell-based
[2] = system: HT1080; assay: MTT cytotoxicity assay; assay type: cell-based; details: Homo sapiens, HT-1080, read-out: Selinexor IC50 (μM)
[3] = system: nuclear export of the XPO1 cargo protein Rev-GFP in stably transfected U2OS cells; assay: Rev-GFP assay (nuclear retention of Rev-GFP); assay type: cell-based; details: Homo sapiens
From the text: For this assay we utilized biotinylated LMB (b-LMB) as a tool compound to quantify the amount of XPO1 bound by SINE compounds (Figure 1). b-LMB was synthesized by coupling a biotin tag to LMB. We compared the inhibition of nuclear export and the cytotoxicity of b-LMB to that of the unmodified LMB. […] We then quantified the effects of these compounds on cell death in several cancer cell lines using an MTT cytotoxicity assay (Table 2).
For the typical Rev-GFP assay, U2OS cells stably expressing Rev-GFP [42] were cultured in 96 well plates at 7,500 - 15,000 cells/well. […] After fixation cells were stained with DAPI (Invitrogen) for 10 minutes at room temperature. Cells were imaged with a Nikon fluorescent microscope at 10X magnification and intensity of the GFP and nuclear area were measured and recorded. Cells were scored as either GFP nuclear positive or negative. Number of positive cells were divided by total number of cells in order to calculate percentage of cells with nuclear GFP per well.

[4] = system: HEL; assay: MTT cytotoxicity assay; assay type: cell-based; details: Homo sapiens, read-out: Selinexor IC50 (μM)
[5] = system: A549; assay: MTT cytotoxicity assay; assay type: cell-based; details: Homo sapiens, read-out: Selinexor IC50 (μM)
[6] = system: LS174T; assay: MTT cytotoxicity assay; assay type: cell-based; details: Homo sapiens, read-out: Selinexor IC50 (μM)
[7] = humans; clinical PK analysis, no reference given; cited from earlier work
[8] = system: MM.1S; assay: MTT cytotoxicity assay; assay type: cell-based; details: Homo sapiens, MM1.S
[9] = system: UCH1; assay: MTT cytotoxicity assay; assay type: cell-based; details: read-out: Selinexor IC50 (μM)
[10] = system: THP-1; assay: MTT cytotoxicity assay; assay type: cell-based; details: Homo sapiens, read-out: Selinexor IC50 (μM)
[11] = system: AML3; assay: MTT cytotoxicity assay; assay type: cell-based
[12] = system: Kasumi-6; assay: MTT cytotoxicity assay; assay type: cell-based; details: read-out: Selinexor IC50 (μM)
[13] = biological target: XPO1 (Homo sapiens, UniProt O14980); assay: XPO1 occupancy assay in human PBMCs treated ex vivo; assay type: cell-based; set-up: performed ex vivo on PBMCs isolated from pooled healthy donor blood; host or cells: human PBMCs from pooled healthy donor blood, fresh or revived after cryopreservation; details: then 1 nM b-LMB 1 hour
Description: (§1) Cells were collected, washed with PBS, and lysed with RIPA Buffer (Thermo Scientific) with protease inhibitors [Complete Ultra Tablets, Mini, EDTA-free, Easy pack (Roche), PhosStop Easy (Roche)]. A portion of the lysate was reserved (input) while the rest was added to washed Dynabeads MyOne Streptavidin T1 (Invitrogen) with RIPA Buffer. Samples were incubated overnight with constant rotation at 4°C. Beads were then washed 5 times with modified RIPA (150 mM NaCl, 50 mM Tris, 1% NP-40, 0.1% Na deoxycholate, 1 mM EDTA, pH 7.8). The reserved portion of lysates (input) and the beads were each mixed with Protein Simple buffer (Protein Simple), DTT (Invitrogen), and fluorescent standards (Protein Simple), then boiled at 95°C for 10 min. Eluates and inputs were analyzed using a capillary western method (Peggy Sue; Protein Simple) with the following primary antibodies: XPO1 (Santa Cruz) and β-actin (Santa Cruz). Capillary westerns were performed by SBH Sciences (Natick, MA). Peak areas corresponding to the protein molecular weight of XPO1 and actin were compared for sample inputs, while the ratio of XPO1 peak areas in eluate to input (ratio of bound or free-fraction XPO1) versus compound concentration were used in XLFit model 205 to calculate 50% and 90% occupancy curves.

[14] = biological target: T1, XPO1 (Mus musculus, UniProt Q6P5F9); assay: XPO1 occupancy assay in PBMCs from mice dosed orally with selinexor; assay type: in vivo
T1 construct: the blood from the mice for each dose (n = 4) was pooled and PBMCs were immediately isolated; from tissue; host or cells: PBMCs from pooled blood of orally dosed mice
Description: In order to have enough PBMCs to assay, the blood from the mice for each dose (n = 4) was pooled and PBMCs were immediately isolated. Mouse PBMCs were incubated with 1 nM b-LMB for 1.5 hours ex vivo then collected and prepared for the XPO1 occupancy assay.
Using similar conditions, we sought to determine the duration of XPO1 occupancy by SINE compounds in mice. […] The mice were then terminally bled at 4, 24, 36, 48, 60, 72, and 96 hours post dose (n = 4 mice per dose per time point). Blood for each dose at each time point was pooled and PMBCs were isolated. Mouse PBMCs were incubated with 1 nM b-LMB for 1.5 hours ex vivo before being processed for the XPO1 occupancy assay. Both 3 and 10 mg/kg had time-dependent increases in the ratio of free-fraction XPO1, with 50% XPO1 occupancy being sustained for up to 72 hours post-treatment (Figure 5B).
Human donor blood collected in Vacutainer® EDTA tubes (BD) (BioreclamationIVT) was purchased for peripheral blood mononuclear cells (PBMCs) isolation. […] Mouse whole blood was collected in Vacutainer® EDTA tubes (BD) and pooled from each group for each time point. Human and mouse PBMCs were separated by Ficoll (GE Healthcare) gradient. Human PMBCs were cryogenically preserved in Recovery™ Cell Culture Freezing Medium (Gibco). […] Freshly isolated PBMCs from control or selinexor-treated mice were treated ex vivo with 1 nM b-LMB for 1.5 hours prior to collection and processing for the XPO1 occupancy assay.
as §1

[15] = system: MV-4–11; assay: MTT cytotoxicity assay; assay type: cell-based; details: Homo sapiens, MV4-11, read-out: Selinexor IC50 (μM)
[16] = system: HT1080 resistant; assay: MTT cytotoxicity assay; assay type: cell-based; details: Homo sapiens, HT-1080, read-out: Selinexor IC50 (μM)
[17] = read-out: Selinexor IC50 (μM), MTT
[18] = single oral dose, 4 hours post-dosing

T1 sequence (Q6P5F9 whole entry): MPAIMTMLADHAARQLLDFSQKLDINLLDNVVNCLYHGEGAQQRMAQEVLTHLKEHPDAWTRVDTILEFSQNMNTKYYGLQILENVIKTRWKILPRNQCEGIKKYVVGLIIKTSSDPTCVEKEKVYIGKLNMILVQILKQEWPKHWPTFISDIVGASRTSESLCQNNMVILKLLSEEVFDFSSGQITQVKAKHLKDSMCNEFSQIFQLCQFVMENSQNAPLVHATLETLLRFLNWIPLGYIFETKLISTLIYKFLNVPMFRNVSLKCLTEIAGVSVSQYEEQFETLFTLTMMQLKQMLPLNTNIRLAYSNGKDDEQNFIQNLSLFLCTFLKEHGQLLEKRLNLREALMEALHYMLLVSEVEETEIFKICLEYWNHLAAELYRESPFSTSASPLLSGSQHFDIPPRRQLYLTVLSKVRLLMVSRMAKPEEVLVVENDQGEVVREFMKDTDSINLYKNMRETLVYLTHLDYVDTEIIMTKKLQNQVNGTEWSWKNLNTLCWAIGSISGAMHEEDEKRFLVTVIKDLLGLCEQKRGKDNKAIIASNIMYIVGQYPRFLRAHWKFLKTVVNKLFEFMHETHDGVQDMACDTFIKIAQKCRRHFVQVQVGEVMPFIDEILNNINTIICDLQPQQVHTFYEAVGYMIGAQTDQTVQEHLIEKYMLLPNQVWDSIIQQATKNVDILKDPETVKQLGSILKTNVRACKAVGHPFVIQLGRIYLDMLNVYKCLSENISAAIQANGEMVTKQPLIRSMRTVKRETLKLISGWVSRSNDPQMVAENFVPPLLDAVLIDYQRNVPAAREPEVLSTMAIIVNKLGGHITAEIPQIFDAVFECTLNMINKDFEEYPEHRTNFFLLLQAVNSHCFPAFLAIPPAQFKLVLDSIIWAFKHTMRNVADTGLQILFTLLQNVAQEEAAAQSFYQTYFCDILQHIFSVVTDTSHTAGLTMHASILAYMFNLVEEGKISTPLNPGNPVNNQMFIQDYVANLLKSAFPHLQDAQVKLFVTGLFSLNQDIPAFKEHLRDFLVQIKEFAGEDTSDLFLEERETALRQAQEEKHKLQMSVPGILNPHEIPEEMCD
Sequence of XPO1 (Homo sapiens, UniProt O14980) (O14980 whole entry): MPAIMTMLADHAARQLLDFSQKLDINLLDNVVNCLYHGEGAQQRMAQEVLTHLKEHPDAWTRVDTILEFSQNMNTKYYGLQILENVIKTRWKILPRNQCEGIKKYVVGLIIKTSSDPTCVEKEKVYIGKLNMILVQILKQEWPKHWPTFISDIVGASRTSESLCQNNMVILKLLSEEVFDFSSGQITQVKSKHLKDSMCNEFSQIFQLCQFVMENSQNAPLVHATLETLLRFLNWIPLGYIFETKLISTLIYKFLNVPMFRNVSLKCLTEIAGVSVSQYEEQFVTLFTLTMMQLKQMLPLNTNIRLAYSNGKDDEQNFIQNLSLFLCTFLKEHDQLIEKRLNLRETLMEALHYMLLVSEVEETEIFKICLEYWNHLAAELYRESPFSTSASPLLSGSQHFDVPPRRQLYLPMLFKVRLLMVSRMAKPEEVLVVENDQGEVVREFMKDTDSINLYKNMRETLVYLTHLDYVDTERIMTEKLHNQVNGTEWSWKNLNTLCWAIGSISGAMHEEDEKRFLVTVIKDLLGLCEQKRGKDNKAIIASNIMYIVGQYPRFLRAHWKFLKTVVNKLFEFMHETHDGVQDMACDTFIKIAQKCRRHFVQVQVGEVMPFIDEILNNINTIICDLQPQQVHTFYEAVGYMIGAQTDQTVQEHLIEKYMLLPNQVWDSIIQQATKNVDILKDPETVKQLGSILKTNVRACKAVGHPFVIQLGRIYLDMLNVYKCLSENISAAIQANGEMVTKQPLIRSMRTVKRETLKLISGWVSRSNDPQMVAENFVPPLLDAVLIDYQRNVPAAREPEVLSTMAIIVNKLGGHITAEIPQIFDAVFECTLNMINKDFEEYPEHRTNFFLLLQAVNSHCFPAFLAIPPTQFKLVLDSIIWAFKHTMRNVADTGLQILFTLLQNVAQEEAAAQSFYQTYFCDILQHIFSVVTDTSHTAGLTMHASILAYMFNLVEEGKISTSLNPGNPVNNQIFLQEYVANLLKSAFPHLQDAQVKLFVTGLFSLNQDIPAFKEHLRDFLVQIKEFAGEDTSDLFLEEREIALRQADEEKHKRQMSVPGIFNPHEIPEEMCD

O=C(/C=C\n1cnc(-c2cc(C(F)(F)F)cc(C(F)(F)F)c2)n1)NNc1cnccn1 [Selinexor, selinexor]
IC50 ([1]; 72 hours, read-out: IC50): 0.09 µM
IC50 [1, 17]: 0.09 µM
IC50 [2]: 0.07 µM
IC50 ([3]; 4 h, read-out: Rev-GFP (nM), U2OS cells stably expressing Rev-GFP, 4 hours treatment): 40 nM
IC50 ([3]; 4 h, read-out: RevGFP Assay IC50 (μM), Rev-GFP U2OS, selinexor 4 hours, 4 hours post washout): 20 nM
IC50 ([3]; read-out: Rev-GFP IC50 (μM), U2OS Rev-GFP cells): 40 nM
IC50 ([3]; read-out: RevGFP Assay IC50 (μM), Rev-GFP U2OS, selinexor 4 hours, 0 hours post washout): 10 nM
IC50 ([3]; read-out: RevGFP Assay IC50 (μM), Rev-GFP U2OS, selinexor 4 hours, 24 hours post washout): 500 nM
IC50 ([3]; read-out: RevGFP Assay IC50 (μM), Rev-GFP U2OS, selinexor 4 hours, 48 hours post washout): 1300 nM
IC50 ([3]; read-out: RevGFP Assay IC50 (μM), Rev-GFP U2OS, selinexor 4 hours, 72 hours post washout): 6800 nM
IC50 ([3]; read-out: RevGFP Assay IC50 (μM), Rev-GFP U2OS, selinexor 4 hours, 96 hours post washout): 11400 nM
IC50 [4]: 0.35 µM
IC50 [5]: 3 µM
IC50 [6]: > 10 µM
Tmax [7]: ~4 h
near complete plasma clearance by (time post-dose) [7]: ~24 h
IC50 ([8]; 72 hours, read-out: IC50): 0.02 µM
IC50 [8, 17]: 0.02 µM
IC50 [9]: 7 µM
IC50 [10]: 1.06 µM
IC50 ([11]; 72 hours, read-out: IC50): 0.27 µM
IC50 [11, 17]: 0.27 µM
IC50 [12]: 0.53 µM
90% Occupancy ([13]; fresh human PBMCs, selinexor 1 hour): > 0.5 µM
90% Occupancy ([13]; human PBMCs revived from cryopreservation, selinexor 4 hours, washed): 0.04 µM
time at which full saturation of XPO1 was achieved ([14]; single oral dose of 3 mg/kg): 4 to 24 h
time for which 50% XPO1 occupancy is sustained post-treatment ([14]; single oral dose of 3 and 10 mg/kg): up to 72 hours
amount of selinexor required to occupy 50% of XPO1 [14, 18]: 1.84 mg/kg
amount of selinexor to achieve 90% XPO1 occupancy [14, 18]: > 10 mg/kg
IC50 [15]: 0.02 µM
IC50 [16]: 2.4 µM
